Experimental data as given in paper PMC9928118, “Funneling modulatory peptide design with generative models: Discovery and characterization of disruptors of calcineurin protein-protein interactions” (PLOS Computational Biology, 2023).

Tests used:
GST-tagged Cn [1] = assay: PEPperPRINT peptide microarray binding assay with GST-tagged Cn; details: GST-tagged Cn, mean over the duplicate spots (Location on chip)
In short: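 Qualitative binding: peptides printed on a PEPperPRINT microarray were incubated overnight at 4 °C with 1 mg/ml GST-tagged Cn, then detected with Alexa-Fluor 647 anti-GST antibody. Log fluorescence was baseline-corrected, averaged over duplicate spots, Z-normalized and averaged across five repeats.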

GST-tagged Cn [2] = assay: as above; details: max over the duplicate spots (Location on chip)

| Sequence | Chip Fluorescence (mean) (GST-tagged Cn [1]) | Chip Fluorescence (max) (GST-tagged Cn [2]) |
| --- | --- | --- |
| TFWTNPQYKITLEDED [SeqRBMlowT_7336] | 1.363 | 2.0782 |
| HIIIVWAVSEVKYVQL [Seqrandom_9992] | 0.6897 | 1.914 |
| SSMAQPAINIDFAPTN [SeqRBMlowT_2450] | -0.1624 | 2.328 |
| TFWTNPQFKVSLEEPD [SeqRBMlowT_97] | 0.2931 | 2.43 |
| GFETTPSIVVHVCEED [SeqRBMlowT_1939] | 0.4497 | 2.448 |
| HDLQCVINLHENACKT [Seqrandom_9996] | -0.1329 | 2.151 |
| TFWTNPQYRITLEDPD [SeqRBMlowT_604] | -0.2036 | 2.534 |
| RAYDNPVFSFTFDSKG [SeqRBM_7566] | 0.4256 | 2.445 |
| SFWTNPQFIITLQEED [SeqRBMlowT_7307] | 0.8738 | 2.363 |
| SDVAQQCLPSQHWSCW [Seqrandom_9997] | 0.2486 | 2.401 |
| TFWTNPQFRITLEEPD [SeqRBMlowT_11] | 0.7438 | 2.387 |
| RAYINPFMQFTFDSNK [SeqRBMlowT_4738] | 0.6521 | 2.119 |
| RNPGTFLLTLRGHKKQ [SeqRBMlowT_5813] | 1.08 | 2.447 |
| KADYTISLILHYDAIE [Seqshuffled_9660] | 0.7325 | 1.911 |
| RTYINPFMQFNRGGRK [SeqRBM_3856] | 0.8441 | 2.196 |
| FQTDAPTIPIDQAPIC [SeqRBM_9788] | 0.3576 | 1.993 |
| RNPGSPVLVLEGHSAA [SeqYPL247C_Zygosaccharomyces_parabailii] | -0.2767 | 2.128 |
| STASLPSFNFSFLTSS [SeqNUP153_Antrostomus_carolinensis] | -0.1064 | 2.477 |
| TFMMNPQYRLYKSVSP [SeqRBM_6553] | 0.3935 | 2.027 |
| KNARGPLIIIHPMEED [SeqRBM_1913] | 1.192 | 2.283 |
| KSKRIPKLSVVSPVHH [SeqRBM_6422] | 0.728 | 2.115 |
| ESRYRRFRQFQAPKVD [Seqshuffled_9523] | 1.1019 | 2.434 |
| LSSSNPEITVTPAELD [SeqRBMlowT_6234] | -0.4808 | 1.968 |
| SSSAAPEIVVSKPEHN [SeqRBMlowT_9785] | -0.01901 | 2.217 |

| Sequence | Chip Fluorescence (mean) (GST-tagged Cn [1]) | Chip Fluorescence (max) (GST-tagged Cn [2]) |
| --- | --- | --- |
| GNDDCPEVVVHPPEED [SeqRBMlowT_7697] | 0.9366 | 2.095 |
| NNLAINDVTAGDRGCY [SeqRBM_1373] | 1.818 | 2.1787 |
| RAYMNPSVCFTDGGAR [SeqRBM_6787] | 0.3113 | 1.921 |
| YRQAVRFEMPLTACAP [Seqrandom_9969] | 0.771 | 2.355 |
| KAYMCPYMQFIEGGRR [SeqSFB3_Ictalurus_punctatus] | 1.763 | 2.501 |
| KKMAPPAINIDPAPTN [SeqRBMlowT_321] | -0.1981 | 2.529 |
| TFNNNPQATVRRTDID [SeqRBM_1961] | 0.6511 | 1.877 |
| STPLPQGAPISPNTLA [Seqshuffled_9522] | -0.4537 | 2.383 |
| LLDNVPAVHVHDMGGH [SeqRBM_9035] | 0.6608 | 1.904 |
| TFWSNPQFKITLEEPD [SeqRBMlowT_5528] | 0.877 | 2.1472 |
| DCIGFCSVPVMYAPNH [Seqrandom_1239] | -0.3019 | 2.175 |
| HPYMGPKIQFHSGGRK [SeqRBM_457] | 0.3342 | 2.294 |
| KAYMNPFMQFIDGGRK [SeqRBMlowT_6686] | 0.8271 | 2.02 |
| TFWTNPQFKFRLEDPD [SeqRBMlowT_7471] | 0.6593 | 2.466 |
| PSLYINALGIESFTLS [SeqRBMlowT_6967] | 0.7051 | 2.037 |
| LNDEIPEVRLNIISAL [SeqRBMlowT_4170] | -0.4845 | 2.3229 |
| TFWSNPQYRITLEDPD [SeqRBMlowT_78] | 0.4904 | 2.0958 |
| ADETQPGIVVHVCELP [SeqRBMlowT_352] | 0.6468 | 2.166 |
| RTYINPFMQFTYDGRR [SeqRBMlowT_4071] | 1.243 | 1.896 |
| RMYINPFVQFIDGGNR [SeqSFB3_Mycena_chlorophos] | -0.09268 | 2.0812 |
| GGPSTPGRQNNPLAPS [SeqRTS1_Zymoseptoria_tritici] | -0.03327 | 2.314 |
| RQPGSPVLELSGHSAN [SeqRBMlowT_5862] | 0.5615 | 2.053 |
| KAYMCPYMQFIAGGRK [SeqRBM_8989] | 0.7869 | 1.932 |
| LRDEVPEVRLNIISDL [SeqRBM_180] | -0.2367 | 2.2011 |
